Assay results as given in US10385024B2, “Compounds and methods for inhibiting NHE-mediated antiport in the treatment of disorders associated with fluid retention or salt overload and gastrointestinal tract disorders” (Ardelyx, Inc., priority 2012, dated 2019).

How the values were obtained:
[1] = human absorption data, from Ertl et al., J. Med. Chem., 2000; cited from earlier work
Rat NHE-3 [2] = target: T1, Rat NHE-3 (Rattus norvegicus, UniProt P26433); assay: Cell-based assay of NHE-3 activity (rat NHE-3 prompt inhibition); conditions: OK cells with rat NHE-3 gene, compound present during pH recovery; for IC50: read-out: Rat NHE3 pIC50 (prompt) (converted)
T1 construct: expressed in transfected cells; host or cells: Opossum kidney (OK) cells (ATCC), transfected by electroporation
T1 sequence (P26433 29-831): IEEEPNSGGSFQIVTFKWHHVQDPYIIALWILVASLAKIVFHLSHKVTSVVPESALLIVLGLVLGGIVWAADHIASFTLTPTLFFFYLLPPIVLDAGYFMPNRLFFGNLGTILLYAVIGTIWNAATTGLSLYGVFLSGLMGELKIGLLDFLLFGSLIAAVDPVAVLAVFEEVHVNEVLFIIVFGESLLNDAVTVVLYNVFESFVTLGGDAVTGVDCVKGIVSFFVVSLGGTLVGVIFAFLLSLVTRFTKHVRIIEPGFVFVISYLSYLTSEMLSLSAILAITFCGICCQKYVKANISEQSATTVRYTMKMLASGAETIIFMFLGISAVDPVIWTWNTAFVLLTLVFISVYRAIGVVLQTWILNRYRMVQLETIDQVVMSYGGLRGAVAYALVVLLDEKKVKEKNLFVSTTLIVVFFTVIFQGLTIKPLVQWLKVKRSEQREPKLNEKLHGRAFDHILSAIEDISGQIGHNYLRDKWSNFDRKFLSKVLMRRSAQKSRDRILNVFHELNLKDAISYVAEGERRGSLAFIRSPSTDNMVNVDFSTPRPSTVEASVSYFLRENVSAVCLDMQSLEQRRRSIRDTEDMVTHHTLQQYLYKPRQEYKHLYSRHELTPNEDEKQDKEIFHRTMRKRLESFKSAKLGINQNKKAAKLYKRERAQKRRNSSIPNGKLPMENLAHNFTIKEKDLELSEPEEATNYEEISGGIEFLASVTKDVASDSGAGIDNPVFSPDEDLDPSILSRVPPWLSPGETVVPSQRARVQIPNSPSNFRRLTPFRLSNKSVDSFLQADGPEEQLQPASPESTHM
Procedure, shortened: (§1)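 Opossum kidney cells electroporated with rat or human NHE-3, loaded with 5 μM BCECF-AM in NH4Cl-HEPES pH 7.4 for 30 min at RT, then acidified 10 min in Na+-free choline HEPES. Na+-dependent pH recovery rates from BCECF fluorescence, averaged over ≥2 replicates, gave pIC50.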

[3] = Pharmacokinetic evaluation in bile; format: in vivo, Sprague-Dawley rats; conditions: bile duct cannulated rats, oral gavage, nominal dose 30 mg/kg, bile collected over 24 h, mean of n=3
Description: Bile duct cannulated (BDC) Sprague-Dawley rats were dosed with test compounds by oral gavage and a single aliquot of bile was collected via cannula over the 24 h following dosing. Bile samples were treated with acetonitrile and precipitated proteins were removed by centrifugation. Some compounds required liquid-liquid extraction using MTBE. After centrifugation, samples were diluted as appropriate in mobile phase and analyzed by LC-MS/MS. The concentrations of compounds in bile were determined by interpolation from a standard calibration curve prepared in rat bile from untreated BDC rats. Accurate recovery of quality control samples was confirmed to accept each analytical run. Concentration in bile is reported in nM and represents the mean result from n=3 rats.

human NHE-3 = target: T2, human NHE-3 (Homo sapiens, UniProt P48764); assay: Cell-based assay of NHE-3 activity (human NHE3 inhibition assay); conditions: OK cells with human NHE-3 gene, BCECF pH dye, 0-30 μM test compound; for IC50: read-out: Human NHE3 pIC50 (converted)
T2 construct: expressed in transfected cells; host or cells: Opossum kidney (OK) cells (ATCC), transfected by electroporation
T2 sequence (P48764 26-834): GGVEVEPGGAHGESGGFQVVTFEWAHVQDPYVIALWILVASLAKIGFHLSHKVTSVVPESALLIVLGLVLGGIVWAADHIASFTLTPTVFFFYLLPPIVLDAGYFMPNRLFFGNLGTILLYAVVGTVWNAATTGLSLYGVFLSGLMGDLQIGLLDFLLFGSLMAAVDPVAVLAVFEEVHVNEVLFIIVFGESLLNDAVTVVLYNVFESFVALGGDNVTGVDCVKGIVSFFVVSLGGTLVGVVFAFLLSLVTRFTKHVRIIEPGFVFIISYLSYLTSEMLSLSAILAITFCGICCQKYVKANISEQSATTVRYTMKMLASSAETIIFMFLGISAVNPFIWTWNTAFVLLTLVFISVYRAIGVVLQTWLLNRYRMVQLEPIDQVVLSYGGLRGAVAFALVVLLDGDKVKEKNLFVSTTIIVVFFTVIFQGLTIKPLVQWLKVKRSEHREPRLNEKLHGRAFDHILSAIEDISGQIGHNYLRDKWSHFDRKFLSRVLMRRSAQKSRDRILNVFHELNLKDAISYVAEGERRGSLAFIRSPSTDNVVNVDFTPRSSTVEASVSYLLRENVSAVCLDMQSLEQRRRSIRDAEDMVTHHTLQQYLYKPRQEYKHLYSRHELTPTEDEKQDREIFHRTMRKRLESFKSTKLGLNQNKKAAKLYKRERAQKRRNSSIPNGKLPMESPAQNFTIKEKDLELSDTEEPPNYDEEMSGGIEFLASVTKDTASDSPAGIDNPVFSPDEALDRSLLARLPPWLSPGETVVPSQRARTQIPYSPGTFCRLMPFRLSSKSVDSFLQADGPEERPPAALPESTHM
Procedure, shortened: as §1

Rat NHE-3 [4] = target: T1, Rat NHE-3; assay: Cell-based assay of NHE-3 activity (persistent inhibition, after washout); conditions: OK cells with rat NHE-3 gene, 60 min incubation, recovery initiated 40 min after compound washout; for IC50: read-out: Rat NHE3 pIC50 (persistent) (converted)
Procedure, shortened: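 OK cells transiently expressing rat NHE-3 were exposed to 0-30 μM compound in NaCl-HEPES pH 7.4 for 60 min, then washed free of drug before NH4Cl/BCECF-AM loading and acid-loading in Na+-free choline buffer. Na+-dependent pH recovery rates (mean of ≥2 replicates) gave pIC50.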

Fecal recovery = format: in vivo, Sprague Dawley rats; conditions: male, Sprague-Dawley, faeces; rat, 1 mg/kg oral gavage, collection time 48 h
Description: Three male Sprague Dawley rats were administered 1 mg/kg test compound by oral gavage. Feces were collected from study animals from 0-48 or 0-72 hours after dosing, dried by lyophilization, and homogenized. Replicate aliquots of 40-60 mg each were subjected to extraction/protein precipitation with 7:1 acetonitrile:water and centrifuged. Supernatants were diluted 1:10 in 50:50 acetonitrile:water prior to analysis by LC-MS/MS. Compound concentrations, determined by interpolation from a standard calibration curve prepared in blank feces matrix, were converted to the percentage of dosed material recovered by taking into account the total collected fecal matter. The percent recovery for each rat was reported as the mean of the calculations from replicate samples. The overall percent recovery (Fecal Recovery [%]) was reported as the mean percent recovery from three rats. Accurate quality control sample recoveries were confirmed in each run, and extraction efficiency was periodically verified.

[5] = tested on: absorption of sodium from the intestinal lumen; assay: Inhibition of intestinal sodium absorption (urinary sodium and fecal form); format: in vivo, Sprague-Dawley rats; conditions: rat; for response vs control in vivo at 3 mg/kg: 3 mg/kg oral gavage, urine 16 h post-dose, asterisks = significance vs vehicle (*P<0.05, **P<0.01, ***P<0.001), read-out: uNa (% of vehicle); for FFS: fecal form score, scale 1 (normal pellet) to 5 (liquid fecal streams), group average, 3 mg/kg oral, 16 h post-dose, vehicle = 1
Procedure, shortened: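 Sprague-Dawley rats (8 weeks, n=6) dosed by oral gavage with compound or water vehicle (10 mL/kg) in late afternoon, then housed in metabolic cages. Over 16 h, urinary sodium measured by ion chromatography and expressed as % of vehicle mean; fecal form scored 1–5, averaged from two observations.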

Question: For `OC[C@H]1O[C@@H](O[C@@H]2[C@@H](CO)OC(O)(CO)[C@H]2O)[C@H](O)[C@@H](O)[C@H]1O` (mixture of isomers) [lactulose], which “% FA” value [1] is on record?
Answer: 0.6%

Question: For `CN1Cc2c(Cl)cc(Cl)cc2[C@H](c2cccc(S(=O)(=O)NCCOCCOCCNC(=O)NCCC(N)(CCNC(=O)NCCOCCOCCNS(=O)(=O)c3cccc([C@@H]4CN(C)Cc5c(Cl)cc(Cl)cc54)c3)CCNC(=O)NCCOCCOCCNS(=O)(=O)c3cccc([C@@H]4CN(C)Cc5c(Cl)cc(Cl)cc54)c3)c2)C1` [Example 46, (S)—N,N′-(14-amino-14-(13-(3-((S)-6,8-dichloro-2-methyl-1,2,3,4-tetrahydroisoquinolin-4-yl)phenylsulfonamido)-4-oxo-8,11-dioxa-3,5-diazatridecyl)-10,18-dioxo-3,6,22,25-tetraoxa-9,11,17,19-tetraazaheptacosane-1,27-diyl)bis(3-((S)-6,8-dichloro-2-methyl-1,2,3,4-tetrahydroisoquinolin-4-yl)benzenesulfonamide)], which IC50 (Rat NHE-3 [2]) is on record?
Answer: < 100 nM

Question: What about the “Concentration in Bile” value [3] of the same molecule?
Answer: 3 nM

Question: What about the IC50 (human NHE-3) of the same molecule?
Answer: < 100 nM

Question: And the IC50 (Rat NHE-3 [4])?
Answer: < 100 nM

Question: And the dose excreted (Fecal recovery)?
Answer: 75.8%

Question: What does the source list for `CN(C)CC(=O)NC(CCC(=O)N(C)CCOCCOCCNS(=O)(=O)c1cccc([C@@H]2CN(C)Cc3c(Cl)cc(Cl)cc32)c1)(CCC(=O)N(C)CCOCCOCCNS(=O)(=O)c1cccc([C@@H]2CN(C)Cc3c(Cl)cc(Cl)cc32)c1)CCC(=O)N(C)CCOCCOCCNS(=O)(=O)c1cccc([C@@H]2CN(C)Cc3c(Cl)cc(Cl)cc32)c1` [Example 68]?
Answer: Rat NHE3 pIC50 (prompt) (Rat NHE-3 [2]): C (C NHE3 pIC50 > 7); Human NHE3 pIC50 (human NHE-3): C (C NHE3 pIC50 > 7); Rat NHE3 pIC50 (persistent) (Rat NHE-3 [4]): C (C NHE3 pIC50 > 7); response vs control in vivo at 3 mg/kg [5]: 35 to 75%

Question: For `CN1Cc2c(Cl)cc(Cl)cc2[C@H](c2cccc(S(=O)(=O)NCCOCCOCCN(C)C(=O)CCC(CCC(=O)N(C)CCOCCOCCNS(=O)(=O)c3cccc([C@@H]4CN(C)Cc5c(Cl)cc(Cl)cc54)c3)(CCC(=O)N(C)CCOCCOCCNS(=O)(=O)c3cccc([C@@H]4CN(C)Cc5c(Cl)cc(Cl)cc54)c3)NC(=O)COCC(=O)O)c2)C1` [Example 70], which “Rat NHE3 pIC50 (prompt)” value (Rat NHE-3 [2]) is on record?
Answer: C (C NHE3 pIC50 > 7)

Question: And the “Human NHE3 pIC50” value (human NHE-3)?
Answer: C (C NHE3 pIC50 > 7)

Question: And the “Rat NHE3 pIC50 (persistent)” value (Rat NHE-3 [4])?
Answer: C (C NHE3 pIC50 > 7)

Question: And the FFS [5]?
Answer: 2

Question: And the response vs control in vivo at 3 mg/kg [5]?
Answer: 35 to 75%

Question: What does the source list for `CC(=O)C(CCC(=O)NCCOCCOCCNS(=O)(=O)c1cccc([C@@H]2CN(C)Cc3c(Cl)cc(Cl)cc32)c1)(CCC(=O)NCCOCCOCCNS(=O)(=O)c1cccc([C@@H]2CN(C)Cc3c(Cl)cc(Cl)cc32)c1)CCC(=O)NCCOCCOCCNS(=O)(=O)c1cccc([C@@H]2CN(C)Cc3c(Cl)cc(Cl)cc32)c1` [Example 72, 4-acetyl-N1,N7-bis(2-(2-(2-(3-((S)-6,8-dichloro-2-methyl-1,2,3,4-tetrahydroisoquinolin-4-yl)phenylsulfonamido)ethoxy)ethoxy)ethyl)-4-(3-(2-(2-(2-(3-((S)-6,8-dichloro-2-methyl-1,2,3,4-tetrahydroisoquinolin-4-yl)phenylsulfonamido)ethoxy)ethoxy)ethylamino)-3-oxopropyl)heptanediamide]?
Answer: IC50 (Rat NHE-3 [2]): 100 to 10000 nM; IC50 (human NHE-3): 100 to 10000 nM; IC50 (Rat NHE-3 [4]): < 100 nM; response vs control in vivo at 3 mg/kg [5]: 35 to 75%

Question: Which results are given for `CC(O)C(CCC(=O)NCCOCCOCCNS(=O)(=O)c1cccc([C@@H]2CN(C)Cc3c(Cl)cc(Cl)cc32)c1)(CCC(=O)NCCOCCOCCNS(=O)(=O)c1cccc([C@@H]2CN(C)Cc3c(Cl)cc(Cl)cc32)c1)CCC(=O)NCCOCCOCCNS(=O)(=O)c1cccc([C@@H]2CN(C)Cc3c(Cl)cc(Cl)cc32)c1` (stereo partly drawn) [Example 73, N1,N7-bis(2-(2-(2-(3-((S)-6,8-dichloro-2-methyl-1,2,3,4-tetrahydroisoquinolin-4-yl)phenylsulfonamido)ethoxy)ethoxy)ethyl)-4-(3-(2-(2-(2-(3-((S)-6,8-dichloro-2-methyl-1,2,3,4-tetrahydroisoquinolin-4-yl)phenylsulfonamido)ethoxy)ethoxy)ethylamino)-3-oxopropyl)-4-(1-hydroxyethyl)heptanediamide]?
Answer: IC50 (Rat NHE-3 [2]): < 100 nM; IC50 (human NHE-3): < 100 nM; IC50 (Rat NHE-3 [4]): < 100 nM; FFS [5]: 2; response vs control in vivo at 3 mg/kg [5]: 35 to 75%

Question: Which “% FA” value [1] does the source give for `C=CCc1ccccc1OCC(O)CNC(C)C` (stereo not drawn) [alprenolol] here?
Answer: 96%

Question: For `O=C(O)P(=O)(O)O` [foscarnet], which “% FA” value [1] is on record?
Answer: 17%

Question: With `OC[C@@H](O)[C@@H](O)[C@H](O)[C@H](O)CO` [mannitol] as the molecule, how does the “% FA” value [1] read?
Answer: 26%

Question: For `Cc1ccccc1N1C(=O)c2cc(S(N)(=O)=O)c(Cl)cc2NC1C` (stereo not drawn) [metolazone], which “% FA” value [1] is on record?
Answer: 64%

Question: For `O=C(O)c1cc(/N=N/c2ccc(O)c(C(=O)O)c2)ccc1O` [olsalazine], which “% FA” value [1] is on record?
Answer: 2.3%

Question: Which “% FA” value [1] does the source give for `C=CCOc1ccccc1OCC(O)CNC(C)C` (stereo not drawn) [oxprenolol] here?
Answer: 97%

Question: Which “% FA” value [1] does the source give for `CC(C)NCC(O)COc1cccc2[nH]ccc12` (stereo not drawn) [pindolol] here?
Answer: 92%

Question: Which “% FA” value [1] does the source give for `CC(=O)Nc1ccc(OCC(O)CNC(C)C)cc1` (stereo not drawn) [practolol] here?
Answer: 95%

Question: For `OC[C@H]1O[C@H](OC[C@H]2O[C@H](O[C@]3(CO)O[C@H](CO)[C@@H](O)[C@@H]3O)[C@H](O)[C@@H](O)[C@@H]2O)[C@H](O)[C@@H](O)[C@H]1O` [raffinose], which “% FA” value [1] is on record?
Answer: 0.3%

Question: For `O=C(O)c1cc(/N=N/c2ccc(S(=O)(=O)Nc3ccccn3)cc2)ccc1O` [sulfasalazine], which “% FA” value [1] is on record?
Answer: 12%

Question: With `CCN1CCCC1CNC(=O)c1cc(S(N)(=O)=O)ccc1OC` (stereo not drawn) [sulpiride] as the molecule, how does the “% FA” value [1] read?
Answer: 36%

Question: Which “% FA” value [1] does the source give for `NC[C@H]1CC[C@H](C(=O)O)CC1` [tranexamic acid] here?
Answer: 55%
